Measured values published in the NIST ThermoML archive (doi:10.1021/je900998f).
± gives the expanded uncertainty stated by the source.

Details: Liquid; for mass density / viscosity: 298.15 K; for mass density: 101.33 kPa, Vibrating tube method

Row | mass density [kg/m3] | viscosity (Capillary tube (Ostwald / Ubbelohde) method) [mPa·s] | vapor or sublimation pressure (351.44 K, Ebulliometric method (Recirculating still)) [kPa] | viscosity [mPa·s] | SMILES
1 | 785.46 ± 0.12 | 1.082 ± 0.073 | 101.33 ± 0.1 |  | CCO [ethanol]
2 | 1222.26 ± 0.42 |  |  | 161.4 ± 8.4 | CCOS(=O)(=O)[O-].CC[n+]1cccc(C)c1 [1-ethyl-3-methylpyridinium ethylsulfate]
